Experimental data published in patent US20100168243A1, “Renin Inhibitors” (priority 2007, published 2010).

Target: T1, trypsin-activated recombinant human renin (Homo sapiens, UniProt P00797)
T1 sequence (P00797 67-406): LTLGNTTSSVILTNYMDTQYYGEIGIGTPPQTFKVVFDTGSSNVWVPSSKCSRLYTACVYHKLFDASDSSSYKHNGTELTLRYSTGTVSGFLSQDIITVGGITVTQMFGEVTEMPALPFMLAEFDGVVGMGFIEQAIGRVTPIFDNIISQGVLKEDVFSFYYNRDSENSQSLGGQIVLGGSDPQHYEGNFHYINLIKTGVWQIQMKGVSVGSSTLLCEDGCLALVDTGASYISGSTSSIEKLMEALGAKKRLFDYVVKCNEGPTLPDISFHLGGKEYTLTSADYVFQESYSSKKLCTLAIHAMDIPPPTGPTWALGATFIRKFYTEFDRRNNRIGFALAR
Experiment: IC50 for renin, fluorescence of quenched peptide substrate (protocols of Example 3 or 4)
Assay type: biochemical
Settings: protocols described in Example 3 or 4; class according to the IC50 values; read-out: IC50 for renin, class in words
Protocol: The sequence of this peptide corresponds to the sequence of human angiotensinogen. The following test protocol is used: All reactions are carried out in a flat bottom white opaque microtiter plate. A 4 μL aliquot of 400 μM renin substrate (DABCYL-γ-Abu-[…]EDANS) in 192 μL assay buffer (50 mM BES, 150 mM NaCl, 0.25 mg/mL bovine serum albumin, pH7.0) is added to 4 μL of test compound in DMSO at various concentrations ranging from 10 μM to 1 nM final concentrations. Next, 100 μL of trypsin-activated recombinant human renin (final enzyme concentration of 0.2-2 nM) in assay buffer is added, and the solution is mixed by pipetting. The increase in fluorescence at 495 nm (excitation at 340 nm) is measured for 60-360 min at rt using a Perkin-Elmer Fusion microplate reader. The slope of a linear portion of the plot of fluorescence increases as a function of time is then determined, and the rate is used for calculating percent inhibition in relation to uninhibited control. […]
All reactions are carried out in a low volume, black, 384 well microtiter plate (Greiner Bio-one). […] After 2 hours of reaction at room temperature, the plates were read on a Viewlux™ (Perkin Elmer) with an excitation/emission of 485/530 nm, and using a 505 nm cutoff filter. […]
The IC50 values of the disclosed compounds for renin were determined according to the protocols described in Example 3 or 4. […]

| IC50 | SMILES |
| --- | --- |
| 0.01 to 50 nM | COCCCCC(O)(CCN(C)C(=O)[C@H]1C[C@@H](N)[C@@H](O)C1)c1cccc(Cl)c1-c1cccc(C)c1 (stereo partly drawn) [Compound 1, (1S,3R,4S)-3-amino-N-[3-(6-chloro-3′-methyl-2-biphenylyl)-3-hydroxy-7-(methyloxy)heptyl]-4-hydroxy-N-methylcyclopentanecarboxamide] |
| 0.01 to 50 nM | COCCCC[C@](O)(CCN(C)C(=O)[C@H]1C[C@@H](N)[C@@H](O)C1)c1cccc(Cl)c1-c1cccc(C)c1 [Compound 11, (1S,3R,4S)-3-amino-N—((S)-3-(6-chloro-3′-methylbiphenyl-2-yl)-3-hydroxy-7-methoxyheptyl)-4-hydroxy-N-methylcyclopentanecarboxamide] |
